Measurements taken from US20140357577A1, “HIV Membrane Fusion Inhibitors” (priority 2011, published 2014).
Starred links: 1 amine or outer side, 2 acyl side, 3 side chain; linkers in the order of their positions; H or OH if unused. Non-standard residues stand in square brackets, D forms with d. No end group written: not given here. *: point of attachment. cholesteryl‑oxycarbonylmethyl = CC(C)CCC[C@@H](C)[C@H]1CC[C@H]2[C@@H]3CC=C4C[C@@H](OC(=O)C*)CC[C@]4(C)[C@H]3CC[C@]12C; C(Bzl) = O=C([C@H](CSCc1ccccc1)N[*:1])[*:2]; tBuAla = CC(C)(C)C[C@H](N)C(=O)O; Suc = O=C(CCC(=O)[*:2])[*:1]; Isovaleryl = CC(C)CC(=O)*; hCys = N[C@@H](CCS)C(=O)O; Pentanoyl = CCCCC(=O)*; Tba = not defined here

Legend:
[1] = tested on: HIV wild type virus strain IIIB; experiment: Standard Anti-Viral-Experiment (AVE), HIV-1 replication assay in MT4-LTR-EGFP cells, wild type IIIB; type: cell-based; conditions: 3 days, EGFP signal
Outline: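 MT4-LTR-EGFP cells infected with HIV-1 IIIB, HXB2D or HXB2D gp41 mutants V38A/Q40H alongside serial 4-fold compound dilutions, 3 days at 37° C. EGFP read by laser-scanning microscopy; EC50 by linear interpolation against log concentration. Mutant results given as fold change in EC50 versus wild-type HXB2D.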

HIV-IIIB + 50% HS = experiment: Standard AVE (50% Human Serum), HIV-1 replication assay in MT4-LTR-EGFP cells; type: cell-based; conditions: fold change vs EC50 in the assay without human serum
Outline: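 MT4-LTR-EGFP cells infected with HIV-1 alongside 4-fold serial compound dilutions in 50% human serum, 3 days at 37 °C. EGFP read by laser-scanning microscopy; EC50 by linear interpolation against log concentration, reported as fold change versus EC50 without serum.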

[2] = tested on: HIV mutant virus strain HXB2D with mutation V38A in the gp41 gene; experiment: Standard AVE, HXB2D site directed mutant V38A; type: cell-based, HIV-1; conditions: fold change vs wild type strain HXB2D
Description: (§1) • Standard Anti-Viral-Experiment “AVE” (wild type HIV strain IIIB+HIV strain HXB2D side directed mutants V38A and Q40H)
(§2) The HIV-1 replication assay measures virus replication (HIV wild type virus strain 111B or HXB2D, or a HIV mutant virus strain HXB2D with mutation V38A or Q40H in the gp41 gene) as an induction of enhanced green fluorescent protein (EGFP) expression. The indicator MT4-LTR-EGFP cells contain an EGFP gene under the control of the HIV-1 LTR promoter sequence. Successful HIV-1 infection results in viral Tat protein expression and subsequent induction of EGFP expression. Compounds/peptides inhibiting HIV-1 infection are expected to reduce EGFP expression as compared to the untreated HIV-infected control.
(§3) Serial 4-fold dilutions of test compounds/peptides were mixed with HIV-1 (IIIB, HXB2D, or a HXB2D mutant virus (V38A or Q40H)) and MT4-LTR-EGFP cells and incubated at 37° C. After 3 days, the wells were examined for EGFP expression using an argon laser-scanning microscope. The effective compound/peptide concentration inhibiting 50% of the virus-induced EGFP signal (EC50) was determined by linear interpolation of the EGFP signal vs. logarithm of the compound concentration; (T20, C34 and Sifuvirtide were added as reference compounds). For the V38A and Q40H mutant viruses, results were reported as a fold change in EC50, as compared with a drug-susceptible wild type strain HXB2D, which forms the backbone of the mutant virus. • Standard AVE (50% Human Serum)

[3] = tested on: HIV mutant virus strain HXB2D with mutation Q40H in the gp41 gene; experiment: Standard AVE, HXB2D site directed mutant Q40H; type: cell-based, HIV-1; conditions: fold change vs wild type strain HXB2D
Description: as §1, §2, §3

| Substance | EC50 [1] [nM] | HIV-IIIB + 50% HS (Fold change in EC50) (HIV-IIIB + 50% HS) | HIV-HXB2D V38A mutant (fold change in EC50) [2] | HIV-HXB2D Q40H mutant (fold change in EC50) [3] |
| --- | --- | --- | --- | --- |
| Ac-A-C(Bzl)-YAALIEALIRAAQEQQEKNEAALR-NH2 ({Ac-Ala-C(Bzl)}-YAALIEALIRAAQEQQEKNEAALR-NH2; SMILES CC[C@H](C)[C@H](NC(=O)[C@H](CC(C)C)NC(=O)[C@H](C)NC(=O)[C@H](CCC(=O)O)NC(=O)[C@@H](NC(=O)[C@H](CC(C)C)NC(=O)[C@H](C)NC(=O)[C@H](C)NC(=O)[C@H](Cc1ccc(O)cc1)NC(=O)[C@H](CSCc1ccccc1)NC(=O)[C@H](C)NC(C)=O)[C@@H](C)CC)C(=O)N[C@@H](CCCNC(=N)N)C(=O)N[C@@H](C)C(=O)N[C@@H](C)C(=O)N[C@@H](CCC(N)=O)C(=O)N[C@@H](CCC(=O)O)C(=O)N[C@@H](CCC(N)=O)C(=O)N[C@@H](CCC(N)=O)C(=O)N[C@@H](CCC(=O)O)C(=O)N[C@@H](CCCCN)C(=O)N[C@@H](CC(N)=O)C(=O)N[C@@H](CCC(=O)O)C(=O)N[C@@H](C)C(=O)N[C@@H](C)C(=O)N[C@@H](CC(C)C)C(=O)N[C@@H](CCCNC(=N)N)C(N)=O) [Peptide 4] | 10 | 2 | 74 | – |
| Ac-ACYAACIEALIRAAQEQQEKNEAALRGSGC(cholesteryl-oxycarbonylmethyl)-NH2 [87] (Ac-ACYAACIEALIRAAQEQQEKNEAALRGSGC(cholesteryl‑oxycarbonylmethyl)-NH2; cysteine pairing not given here) [Peptide 87] | 0.1 | 14 | 1 | 5 |
| Ac-A[hCys]YAA[hCys]IEALIRAAQEQQEKNEAALR-NH2 (cysteine pairing not given here) [Peptide 77] | 6 | 3 | 39 | 304 |
| Suc-Hcy-YLA-Hcy-IEALIRAAREQQEKNEALLR-NH2 (Suc-[hCys]YLA[hCys]IEALIRAAREQQEKNEALLR-NH2; also: cyclised, bridge not given here) [Peptide 28] | 0.6 | 4 | 4 | 25 |
| Suc-ANYLALIEAL-Tba-RAAQEQQEKNEAALR-NH2 (reading uncertain; also: chains 1 and 2 are one peptide joined through Tba residue, printed as Suc-ANYLALIEAL-Tba-RAAQEQQEKNEAALR-NH2) [Peptide 11] | 1 | 0.8 | 26 | 368 |
| Suc-CYLACIEELIRKAQEQQEKNEAAL-Tba-NH2 [27] (Suc-CYLACIEELIRKAQEQQEKNEAAL[tBuAla]-NH2; cysteine pairing not given here) [Peptide 27] | 3 | 0.7 | 28 | 307 |
| Ac-ACYAACIEALIRAAQEQQEKNEAALRGSGC(cholesteryl-oxycarbonylmethyl)-NH2 [81] (Ac-ACYAACIEALIRAAQEQQEKNEAALRGSGC(cholesteryl‑oxycarbonylmethyl)-NH2; cysteine pairing not given here) [Peptide 81] | 0.3 | 4 | 4 | 24 |
| Isovaleryl-E-C(Bzl)-YLALIEELIRKAQEQQEKNEAALR-NH2 ({Isovaleryl-Glu-C(Bzl)}-YLALIEELIRKAQEQQEKNEAALR-NH2; SMILES CC[C@H](C)[C@H](NC(=O)[C@H](CC(C)C)NC(=O)[C@H](C)NC(=O)[C@H](CC(C)C)NC(=O)[C@H](Cc1ccc(O)cc1)NC(=O)[C@H](CSCc1ccccc1)NC(=O)[C@H](CCC(=O)O)NC(=O)CC(C)C)C(=O)N[C@@H](CCC(=O)O)C(=O)N[C@@H](CCC(=O)O)C(=O)N[C@@H](CC(C)C)C(=O)N[C@H](C(=O)N[C@@H](CCCNC(=N)N)C(=O)N[C@@H](CCCCN)C(=O)N[C@@H](C)C(=O)N[C@@H](CCC(N)=O)C(=O)N[C@@H](CCC(=O)O)C(=O)N[C@@H](CCC(N)=O)C(=O)N[C@@H](CCC(N)=O)C(=O)N[C@@H](CCC(=O)O)C(=O)N[C@@H](CCCCN)C(=O)N[C@@H](CC(N)=O)C(=O)N[C@@H](CCC(=O)O)C(=O)N[C@@H](C)C(=O)N[C@@H](C)C(=O)N[C@@H](CC(C)C)C(=O)N[C@@H](CCCNC(=N)N)C(N)=O)[C@@H](C)CC) [Peptide 18] | 1 | 3 | 3 | 53 |
| Suc-CYLACIEELIRKAQEQQEKNEAAL-Tba-NH2 [24] (Suc-CYLACIEELIRKAQEQQEKNEAAL-{Tba-NH2}; cysteine pairing not given here; reading uncertain; also: printed as Suc-CYLACIEELIRKAQEQQEKNEAAL-Tba-NH2) [Peptide 24] | 1 | 1 | 26 | 321 |
| Ac-A[hCys]YAA[hCys]IEALIRAAQEQQEKNEAALR-NH2 (cysteine pairing not given here) [Peptide 78] | 5 | 3 | 61 | 355 |
| Suc-CYLACIEELIRKAGEQQEKNEAAL-Tba-NH2 (Suc-CYLACIEELIRKAGEQQEKNEAAL-{Tba-NH2}; cysteine pairing not given here; reading uncertain; also: printed as Suc-CYLACIEELIRKAGEQQEKNEAAL-Tba-NH2) [Peptide 25] | 0.6 | 3 | 31 | 352 |
| Ac-ACY-Tba-ACIEALIRAAQEQQEKNEAALR-NH2 [Peptide 60] | 5 | 3 | 18 | – |
| Suc-ACYLAC)EELIRKAQEQQEKNEAALR-NH2 [Peptide 31] | 1 | 0.4 | 14 | 238 |
| Suc-ACYLACIEALIRA-Abu-QEQQEKNEAALR-NH2 [Peptide 47] | 1 | 2 | 17 | 261 |
| Suc-ACY-Abu-ACIEALIRAAQEQQEKNEAALR-NH2 [Peptide 49] | 6 | 0.6 | 33 | – |
| Pentanoyl-ANYAALIEALIRAAQEQQEKNEAALR-NH2 (SMILES CCCCC(=O)N[C@@H](C)C(=O)N[C@@H](CC(N)=O)C(=O)N[C@@H](Cc1ccc(O)cc1)C(=O)N[C@@H](C)C(=O)N[C@@H](C)C(=O)N[C@@H](CC(C)C)C(=O)N[C@H](C(=O)N[C@@H](CCC(=O)O)C(=O)N[C@@H](C)C(=O)N[C@@H](CC(C)C)C(=O)N[C@H](C(=O)N[C@@H](CCCNC(=N)N)C(=O)N[C@@H](C)C(=O)N[C@@H](C)C(=O)N[C@@H](CCC(N)=O)C(=O)N[C@@H](CCC(=O)O)C(=O)N[C@@H](CCC(N)=O)C(=O)N[C@@H](CCC(N)=O)C(=O)N[C@@H](CCC(=O)O)C(=O)N[C@@H](CCCCN)C(=O)N[C@@H](CC(N)=O)C(=O)N[C@@H](CCC(=O)O)C(=O)N[C@@H](C)C(=O)N[C@@H](C)C(=O)N[C@@H](CC(C)C)C(=O)N[C@@H](CCCNC(=N)N)C(N)=O)[C@@H](C)CC)[C@@H](C)CC) [Peptide 14] | 13 | 2 | – | >67 |
| Pentanoyl-ECYLCLIEELIRKAQEQQEKNEAALR-NH2 (cysteine pairing not given here) [Peptide 92] | 1 | 5 | – | 3 |
| SUC-ACYLACIDELIAKAQEQQEKNEAALR-NH2 (Suc-ACYLACIDELIAKAQEQQEKNEAALR-NH2; cysteine pairing not given here) [Peptide 36] | 2 | 0.4 | – | 373 |
| Ac-ECYAACIEELIRKAQEQQEKNEAALR-NH2 [Peptide 53] | 21 | 0.3 | – | >164 |
| SUC-ACYLACIDELIKKAQEQQEKNEAALR-NH2 (Suc-ACYLACIDELIKKAQEQQEKNEAALR-NH2; cysteine pairing not given here) [Peptide 30] | 1 | 0.5 | – | 145 |
